Reference: PubChem BioAssay AID248 (DTP/NCI, 2004)
Toxic doses and inconclusive results are not listed. Square brackets hold non-standard residues; d marks the D form. Peptide text beside a SMILES is read from it. * marks the point of attachment. ξ: configuration not given here. ξH = NC(Cc1c[nH]cn1)C(=O)O; Cbz = O=C(OCc1ccccc1)*

Tested on: L1210 leukemia ip in BDF1 mice, survival T/C
Assay: NCI In Vivo Anticancer Drug Screen. Data for tumor model L1210 Leukemia (intraperitoneal) in B6D2F1 (BDF1) mice
Details: endpoint: mean survival time, higher = longer survival
In short: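 Read-out is survival time, reported as the treated-group measurement over the vehicle-control measurement.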

[1] = dose: 100.0 mg/kg/injection, schedule: Q01DX001 (ip), vehicle: saline
[2] = dose: 400.0 mg/kg/injection, schedule: Q01DX001 (ip), vehicle: saline
[3] = dose: 100.0 mg/kg/injection, schedule: Q04DX003 (ip), vehicle: saline with Tween-80
[4] = dose: 100.0 mg/kg/injection, schedule: Q01DX009 (ip), vehicle: saline
[5] = dose: 200.0 mg/kg/injection, schedule: Q01DX001 (ip), vehicle: saline

With `CC1C/C(=C\NC(N)=O)C(=O)O1` (stereo not drawn) the T/C (dose: 100.0 mg/kg/injection, schedule: Q01DX009 (ip), vehicle: water) was 96 % of control, the T/C (dose: 100.0 mg/kg/injection, schedule: Q04DX003 (ip), vehicle: water) was 94 % of control and the T/C (dose: 200.0 mg/kg/injection, schedule: Q01DX009 (ip), vehicle: water) was 100 % of control. For the same compound, the T/C (dose: 200.0 mg/kg/injection, schedule: Q04DX003 (ip), vehicle: water) was 89 % of control, the T/C (dose: 400.0 mg/kg/injection, schedule: Q01DX009 (ip), vehicle: water) was 102 % of control and the T/C (dose: 400.0 mg/kg/injection, schedule: Q04DX003 (ip), vehicle: water) was 96 % of control.
For `BrCc1cccc(C[P+](c2ccccc2)(c2ccccc2)c2ccccc2)c1`, the T/C (dose: 5.0 mg/kg/injection, schedule: Q01DX001 (ip), vehicle: saline) was 112 % of control, the T/C (dose: 10.0 mg/kg/injection, schedule: Q01DX001 (ip), vehicle: saline) was 114 % of control and the T/C (dose: 20.0 mg/kg/injection, schedule: Q01DX001 (ip), vehicle: saline) was 114 % of control. For the same compound, the T/C (dose: 50.0 mg/kg/injection, schedule: Q01DX001 (ip), vehicle: saline) was 110 % of control.
For `O=C(O)C(=S)Cc1cn[nH]n1`, the T/C [1] was 103 % of control and the T/C [2] was 100 % of control.
`OC(c1ccccc1)C1C2C=CC(C2)C1C(O)c1ccccc1` (stereo not drawn) was tested, and the T/C (dose: 100.0 mg/kg/injection, schedule: Q01DX009 (ip), vehicle: Klucel (hydroxypropylcellulose) (HPC)) was 101 % of control, the T/C (dose: 200.0 mg/kg/injection, schedule: Q01DX009 (ip), vehicle: Klucel (hydroxypropylcellulose) (HPC)) was 86 % of control and the T/C (dose: 300.0 mg/kg/injection, schedule: Q01DX009 (ip), vehicle: Klucel (hydroxypropylcellulose) (HPC)) was 95 % of control.
In the case of `O=C1CCCN(C2CCCCC2)CCC1O` (stereo not drawn), the T/C (dose: 100.0 mg/kg/injection, schedule: Q04DX003 (ip), vehicle: acetone) is reported as 96 % of control and the T/C (dose: 200.0 mg/kg/injection, schedule: Q04DX003 (ip), vehicle: acetone) is reported as 93 % of control.
`COc1ccc(C(=S)N(CC(C)C)c2ccccc2)cc1` was tested, and the T/C (dose: 100.0 mg/kg/injection, schedule: Q04DX003 (ip), vehicle: Klucel (hydroxypropylcellulose) (HPC)) was 94 % of control, the T/C (dose: 200.0 mg/kg/injection, schedule: Q04DX003 (ip), vehicle: Klucel (hydroxypropylcellulose) (HPC)) was 95 % of control and the T/C (dose: 400.0 mg/kg/injection, schedule: Q04DX003 (ip), vehicle: Klucel (hydroxypropylcellulose) (HPC)) was 94 % of control.
`CCn1cc(C(=O)O)c(=O)c2cccc(OC)c21` was tested, and the T/C (dose: 50.0 mg/kg/injection, schedule: Q04DX002 (ip), vehicle: saline) was 86 % of control, the T/C (dose: 100.0 mg/kg/injection, schedule: Q04DX002 (ip), vehicle: saline) was 115 % of control and the T/C (dose: 200.0 mg/kg/injection, schedule: Q04DX002 (ip), vehicle: saline) was 100 % of control.
`COCC(=O)C(C(C)=O)C(c1ccc(N(C)C)cc1)C(C(C)=O)C(=O)COC` (stereo not drawn) was tested, and the T/C [3] was 98 % of control, the T/C (dose: 200.0 mg/kg/injection, schedule: Q04DX003 (ip), vehicle: saline with Tween-80) was 89 % of control and the T/C (dose: 400.0 mg/kg/injection, schedule: Q04DX003 (ip), vehicle: saline with Tween-80) was 91 % of control.
With `COc1cc(NC(C)CCCN)c2nc(OCc3ccccc3)ccc2c1` (stereo not drawn) the T/C (dose: 6.25 mg/kg/injection, schedule: Q01DX009 (ip), vehicle: saline with Tween-80) was 96 % of control, the T/C (dose: 6.25 mg/kg/injection, schedule: Q04DX003 (ip), vehicle: saline with Tween-80) was 96 % of control and the T/C (dose: 12.5 mg/kg/injection, schedule: Q01DX009 (ip), vehicle: saline with Tween-80) was 98 % of control. For the same compound, the T/C (dose: 12.5 mg/kg/injection, schedule: Q04DX003 (ip), vehicle: saline with Tween-80) was 93 % of control, the T/C (dose: 25.0 mg/kg/injection, schedule: Q01DX009 (ip), vehicle: saline with Tween-80) was 97 % of control and the T/C (dose: 25.0 mg/kg/injection, schedule: Q04DX003 (ip), vehicle: saline with Tween-80) was 99 % of control.
In the case of `Cc1cc(Cl)cc(C)c1OC(=O)Nc1ccccc1C(F)(F)F`, the T/C [4] is reported as 98 % of control, the T/C (dose: 200.0 mg/kg/injection, schedule: Q01DX009 (ip), vehicle: saline) is reported as 91 % of control and the T/C (dose: 400.0 mg/kg/injection, schedule: Q01DX009 (ip), vehicle: saline) is reported as 112 % of control.
With `Cc1ccc(S(=O)(=O)N(Cc2ccc([N+](=O)[O-])cc2)c2ccccc2)cc1` the T/C (dose: 100.0 mg/kg/injection, schedule: Q01DX001 (ip), vehicle: carboxymethylcellulose (CMC)) was 103 % of control, the T/C (dose: 200.0 mg/kg/injection, schedule: Q01DX001 (ip), vehicle: carboxymethylcellulose (CMC)) was 105 % of control and the T/C (dose: 400.0 mg/kg/injection, schedule: Q01DX001 (ip), vehicle: carboxymethylcellulose (CMC)) was 100 % of control.
With `CCCC1CC=CCC12C(=O)NC(=O)NC2=O` (stereo not drawn) the T/C [1] was 103 % of control, the T/C [5] was 97 % of control and the T/C [2] was 97 % of control.
`O=C(CNC(=O)OCc1ccccc1)NC(Cc1cnc[nH]1)C(=O)O` (stereo not drawn) (Cbz-Gly-[ξH]-OH) was tested, and the T/C [1] was 96 % of control, the T/C [5] was 104 % of control and the T/C [2] was 107 % of control.
`O=P(CCC(F)(F)C(F)(F)C(F)(F)C(F)(F)C(F)(F)C(F)(F)C(F)(F)F)(N1CC1)N1CC1` was tested, and the T/C (dose: 75.0 mg/kg/injection, schedule: Q01DX001 (ip), vehicle: carboxymethylcellulose (CMC)) was 108 % of control.
`O=C(Nc1cccc(C2=NCCN2)c1)Nc1cccc(C2=NCCN2)c1` was tested, and the T/C (dose: 6.0 mg/kg/injection, schedule: Q01DX Z (ip), vehicle: water) was 104 % of control, the T/C (dose: 12.0 mg/kg/injection, schedule: Q01DX Z (ip), vehicle: water) was 101 % of control and the T/C (dose: 25.0 mg/kg/injection, schedule: Q01DX Z (ip), vehicle: water) was 97 % of control.
In the case of `CC1CN(CC2CCCCCCCCCCC2=O)CC(C)O1` (stereo not drawn), the T/C (dose: 100.0 mg/kg/injection, schedule: Q04DX002 (ip), vehicle: Klucel (hydroxypropylcellulose) (HPC)) is reported as 116 % of control and the T/C (dose: 200.0 mg/kg/injection, schedule: Q04DX002 (ip), vehicle: Klucel (hydroxypropylcellulose) (HPC)) is reported as 90 % of control.
`COc1ccc(-n2c(=O)c(N=Nc3ccc(Cl)cc3)c(O)n(-c3ccccc3C)c2=S)cc1` was tested, and the T/C (dose: 37.5 mg/kg/injection, schedule: Q01DX001 (ip), vehicle: Klucel (hydroxypropylcellulose) (HPC)) was 96 % of control, the T/C (dose: 75.0 mg/kg/injection, schedule: Q01DX001 (ip), vehicle: Klucel (hydroxypropylcellulose) (HPC)) was 90 % of control and the T/C (dose: 150.0 mg/kg/injection, schedule: Q01DX001 (ip), vehicle: Klucel (hydroxypropylcellulose) (HPC)) was 92 % of control.
For `O=C1NC(c2ccco2)N2C(=O)NC(c3ccco3)N12` (stereo not drawn), the T/C (dose: 100.0 mg/kg/injection, schedule: Q01DX009 (ip), vehicle: gum acacia) was 90 % of control, the T/C (dose: 100.0 mg/kg/injection, schedule: Q04DX003 (ip), vehicle: gum acacia) was 101 % of control and the T/C (dose: 200.0 mg/kg/injection, schedule: Q01DX009 (ip), vehicle: gum acacia) was 88 % of control. For the same compound, the T/C (dose: 200.0 mg/kg/injection, schedule: Q04DX003 (ip), vehicle: gum acacia) was 95 % of control, the T/C (dose: 400.0 mg/kg/injection, schedule: Q01DX009 (ip), vehicle: gum acacia) was 88 % of control and the T/C (dose: 400.0 mg/kg/injection, schedule: Q04DX003 (ip), vehicle: gum acacia) was 106 % of control.
In the case of `O=S(=O)(c1ccc(Br)cc1)C(F)(F)F`, the T/C (dose: 100.0 mg/kg/injection, schedule: Q04DX002 (ip), vehicle: saline with Tween-80) is reported as 101 % of control, the T/C (dose: 200.0 mg/kg/injection, schedule: Q04DX002 (ip), vehicle: saline with Tween-80) is reported as 101 % of control and the T/C (dose: 400.0 mg/kg/injection, schedule: Q04DX002 (ip), vehicle: saline with Tween-80) is reported as 86 % of control.
`C1CN2CCOB(O1)OCC2` was tested, and the T/C (dose: 69.0 mg/kg/injection, schedule: Q01DX009 (ip), vehicle: other) was 103 % of control, the T/C (dose: 138.0 mg/kg/injection, schedule: Q01DX009 (ip), vehicle: other) was 98 % of control and the T/C (dose: 275.0 mg/kg/injection, schedule: Q01DX009 (ip), vehicle: other) was 98 % of control.
For `CC(=O)n1cc(F)c(=O)[nH]c1=O`, the T/C (dose: 2.1 mg/kg/injection, schedule: Q01DX009 (ip), vehicle: saline with Tween-80) was 108 % of control, the T/C (dose: 3.1 mg/kg/injection, schedule: Q01DX009 (ip), vehicle: saline with Tween-80) was 111 % of control and the T/C (dose: 6.25 mg/kg/injection, schedule: Q04DX003 (ip), vehicle: saline) was 108 % of control. For the same compound, the T/C (dose: 12.5 mg/kg/injection, schedule: Q04DX003 (ip), vehicle: saline) was 115 % of control, the T/C (dose: 25.0 mg/kg/injection, schedule: Q01DX009 (ip), vehicle: saline) was 152 % of control and the T/C (dose: 25.0 mg/kg/injection, schedule: Q04DX003 (ip), vehicle: saline) was 123 % of control. For the same compound, the T/C (dose: 50.0 mg/kg/injection, schedule: Q04DX003 (ip), vehicle: saline) was 151 % of control, the T/C [4] was 101 % of control and the T/C [3] was 188 % of control. For the same compound, the T/C (dose: 100.0 mg/kg/injection, schedule: Q04DX003 (ip), vehicle: saline) was 207 % of control, the T/C (dose: 150.0 mg/kg/injection, schedule: Q01DX001 (ip), vehicle: saline) was 152 % of control and the T/C (dose: 200.0 mg/kg/injection, schedule: Q04DX003 (ip), vehicle: saline) was 113 % of control. For the same compound, the T/C (dose: 300.0 mg/kg/injection, schedule: Q01DX001 (ip), vehicle: saline) was 151 % of control.
